PMC6386719, “A glycyl radical enzyme enables hydrogen sulfide production by the human intestinal bacterium Bilophila wadsworthia” (Proceedings of the National Academy of Sciences of the …, 2019)

Legend:
[1] = target: T1, SarD (sulfoacetaldehyde reductase) (Bilophila wadsworthia, UniProt E5Y946); experiment: NADH-dependent reduction to isethionate; assay type: biochemical
T1 construct: His-tagged, E. coli Rosetta 2 DE3

[2] = target: T2, AdhE (CoA-acylating aldehyde dehydrogenase) (Bilophila wadsworthia, UniProt E5Y379); experiment: conversion to acetyl-CoA; assay type: biochemical; settings: CoASH
T2 construct: His-tagged, E. coli BL21
T2 sequence (E5Y379 1-484): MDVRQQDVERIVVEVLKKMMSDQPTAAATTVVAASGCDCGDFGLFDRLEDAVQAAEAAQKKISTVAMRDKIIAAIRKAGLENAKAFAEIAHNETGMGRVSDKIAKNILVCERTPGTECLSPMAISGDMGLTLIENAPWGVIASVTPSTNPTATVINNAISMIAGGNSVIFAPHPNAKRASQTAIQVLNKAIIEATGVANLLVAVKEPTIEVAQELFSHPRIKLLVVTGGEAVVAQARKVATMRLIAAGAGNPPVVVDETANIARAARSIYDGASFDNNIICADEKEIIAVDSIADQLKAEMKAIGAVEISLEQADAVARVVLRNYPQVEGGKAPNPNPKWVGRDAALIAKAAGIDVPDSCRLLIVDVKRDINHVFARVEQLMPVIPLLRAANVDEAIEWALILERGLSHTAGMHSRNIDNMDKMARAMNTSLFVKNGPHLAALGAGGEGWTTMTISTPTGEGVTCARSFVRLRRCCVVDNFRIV

[3] = target: T3, IslB (GRE-activating enzyme) (Bilophila wadsworthia, UniProt E5Y377); experiment: glycyl radical installation on IslA, EPR; assay type: biochemical; settings: anoxic, acriflavine as photosensitizer
T3 construct: His-tagged, E. coli BL21(DE3) delta-iscR::kan, anoxic purification, reconstituted, reduced with dithionite

[4] = target: T4, Tpa (taurine:pyruvate aminotransferase) (Bilophila wadsworthia, UniProt E5Y945); experiment: deamination to sulfoacetaldehyde; LC-MS; assay type: biochemical
T4 construct: His-tagged, E. coli Rosetta 2 DE3
T4 sequence (E5Y945 1-456): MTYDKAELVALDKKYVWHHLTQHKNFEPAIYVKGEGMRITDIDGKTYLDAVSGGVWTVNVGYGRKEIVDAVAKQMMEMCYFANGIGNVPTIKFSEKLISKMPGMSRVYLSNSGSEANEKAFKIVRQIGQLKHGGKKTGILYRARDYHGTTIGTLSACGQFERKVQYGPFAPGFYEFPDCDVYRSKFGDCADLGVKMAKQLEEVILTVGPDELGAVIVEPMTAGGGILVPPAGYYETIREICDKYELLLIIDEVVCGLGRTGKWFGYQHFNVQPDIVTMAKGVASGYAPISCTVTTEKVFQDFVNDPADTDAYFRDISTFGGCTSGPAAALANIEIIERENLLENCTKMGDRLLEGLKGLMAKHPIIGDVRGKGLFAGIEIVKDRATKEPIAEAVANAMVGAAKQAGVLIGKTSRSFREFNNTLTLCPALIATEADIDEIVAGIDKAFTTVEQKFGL

O=S(=O)(O)CCO = experiment: purified protein; settings: anoxic; IslB-activated enzyme; NADH in coupling assay
[5] = substrate: O=S(=O)(O)CCO; experiment: coupled spectrophotometric assay with yeast alcohol dehydrogenase; assay type: biochemical, Desulfovibrio desulfuricans; settings: anoxic; activated enzyme
Excerpt: coupled spectrophotometric assay with yeast alcohol dehydrogenase on GRE IslA of D. desulfuricans DSM642 | selectivity for the cleavage of isethionate to sulfite and acetaldehyde, but a modest apparent kcat/Km

T1 sequence (E5Y946 whole entry): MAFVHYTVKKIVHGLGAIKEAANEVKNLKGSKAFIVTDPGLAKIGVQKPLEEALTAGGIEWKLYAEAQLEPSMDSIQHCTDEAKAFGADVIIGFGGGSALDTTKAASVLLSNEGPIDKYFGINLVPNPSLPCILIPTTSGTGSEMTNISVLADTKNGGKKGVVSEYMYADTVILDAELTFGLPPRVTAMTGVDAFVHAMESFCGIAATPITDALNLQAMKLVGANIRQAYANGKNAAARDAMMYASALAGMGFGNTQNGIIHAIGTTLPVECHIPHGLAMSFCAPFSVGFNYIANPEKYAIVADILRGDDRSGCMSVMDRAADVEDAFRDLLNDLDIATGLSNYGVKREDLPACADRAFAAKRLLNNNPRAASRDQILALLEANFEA
T3 sequence (E5Y377 whole entry): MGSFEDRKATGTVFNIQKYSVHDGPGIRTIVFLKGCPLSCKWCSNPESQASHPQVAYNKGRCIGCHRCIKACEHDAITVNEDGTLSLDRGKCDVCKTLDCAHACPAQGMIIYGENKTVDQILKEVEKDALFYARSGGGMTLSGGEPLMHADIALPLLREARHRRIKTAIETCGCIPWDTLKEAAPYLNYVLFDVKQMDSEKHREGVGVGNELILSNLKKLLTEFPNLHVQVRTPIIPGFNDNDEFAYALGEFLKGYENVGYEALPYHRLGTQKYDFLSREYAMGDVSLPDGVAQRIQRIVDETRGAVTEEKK
T3 sequence (E5Y378 whole entry, further chain): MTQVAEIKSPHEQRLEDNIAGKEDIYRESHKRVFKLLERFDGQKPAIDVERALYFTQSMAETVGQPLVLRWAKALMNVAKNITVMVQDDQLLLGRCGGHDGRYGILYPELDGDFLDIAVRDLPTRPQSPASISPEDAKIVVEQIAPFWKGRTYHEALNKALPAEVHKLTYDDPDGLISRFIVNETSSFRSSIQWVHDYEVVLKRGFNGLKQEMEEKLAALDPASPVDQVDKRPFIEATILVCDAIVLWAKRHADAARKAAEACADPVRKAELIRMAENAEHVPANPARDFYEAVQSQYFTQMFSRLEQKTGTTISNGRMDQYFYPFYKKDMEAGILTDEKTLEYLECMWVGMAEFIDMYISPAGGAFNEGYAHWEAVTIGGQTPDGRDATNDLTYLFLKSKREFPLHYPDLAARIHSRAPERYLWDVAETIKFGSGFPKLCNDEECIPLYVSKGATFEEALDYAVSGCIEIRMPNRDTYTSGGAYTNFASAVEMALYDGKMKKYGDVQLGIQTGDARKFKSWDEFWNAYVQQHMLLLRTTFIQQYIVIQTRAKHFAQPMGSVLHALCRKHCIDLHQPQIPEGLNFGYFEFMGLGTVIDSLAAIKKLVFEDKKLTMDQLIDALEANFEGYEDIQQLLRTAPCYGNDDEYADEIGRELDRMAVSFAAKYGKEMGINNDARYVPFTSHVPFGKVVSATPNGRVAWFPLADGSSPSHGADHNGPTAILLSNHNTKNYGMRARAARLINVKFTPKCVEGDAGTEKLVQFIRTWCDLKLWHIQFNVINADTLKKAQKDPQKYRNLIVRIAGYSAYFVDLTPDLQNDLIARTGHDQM

NC(=O)C1=CN([C@@H]2O[C@H](COP(=O)(O)OP(=O)(O)OC[C@H]3O[C@@H](n4cnc5c(N)ncnc54)[C@H](O)[C@@H]3O)[C@@H](O)[C@H]2O)C=CC1 [NADH]
NADH-dependent reduction to isethionate ([1]; sulfoacetaldehyde): SarD reduces sulfoacetaldehyde to isethionate in an NADH-dependent manner

NC(=O)c1ccc[n+]([C@@H]2O[C@H](COP(=O)(O)OP(=O)(O)OC[C@H]3O[C@@H](n4cnc5c(N)ncnc54)[C@H](O)[C@@H]3O)[C@@H](O)[C@H]2O)c1 [NAD^+]
conversion to acetyl-CoA ([2]; acetaldehyde): it preferred NAD^+ over NADP^+

C[S+](CC[C@H](N)C(=O)O)C[C@H]1O[C@@H](n2cnc3c(N)ncnc32)[C@H](O)[C@@H]1O (some centres unmarked) [SAM]
glycyl radical installation on IslA, EPR [3]: incubated with the purified GRE IslA in the presence of SAM and acriflavine

CC=O [acetaldehyde]
conversion to acetyl-CoA ([2]; NAD+): converted acetaldehyde to acetyl-CoA only in the presence of CoASH and NAD^+

CC(=O)C(=O)O [pyruvate]
deamination to sulfoacetaldehyde; LC-MS ([4]; taurine): Tpa catalyzes the deamination of taurine with pyruvate to generate sulfoacetaldehyde and alanine

O=CCS(=O)(=O)O [sulfoacetaldehyde]
NADH-dependent reduction to isethionate ([1]; NADH): SarD reduces sulfoacetaldehyde to isethionate in an NADH-dependent manner

NCCS(=O)(=O)O [taurine, 2-aminoethanesulfonate]
deamination to sulfoacetaldehyde; LC-MS ([4]; pyruvate): Tpa catalyzes the deamination of taurine with pyruvate to generate sulfoacetaldehyde and alanine

IslA (isethionate sulfite-lyase) (Bilophila wadsworthia 3_1_6)
Km (O=S(=O)(O)CCO): 8.1 ± 0.8 mM
kcat (O=S(=O)(O)CCO): 14 ± 0.4 s⁻¹

B1: GRE IslA of D. desulfuricans DSM642 (Desulfovibrio desulfuricans ATCC 27774) (protein)
chain: MSMTTCECRSPQEQRLYDKIEGREDRFRKTHPRVFRLLERFEGQKPRIDIERALYFTQSMQETEGQPLVLRWAKALMHIARNMTVYVQEDQLLLGRAGCDGRYGILYPELDGDFLDIAVRDLPTRKTSPATITPEDARRVVEEIAPYWKGKTYHEALNAALPAEVHKLTYDDPEGLISRFIVNETSSFRSSIQWVHDYEKILKRGFNSIKKEAREKLAALDPLSAKDDREKRPFLEAVMIVCDAIVLWAKRHAVLAREMAEKESDPVRKAELLRMAENAEHVPGEPARDFWEACQSQWFTQMFSRIEQKTGTTISNGRMDQYFQPYYKQDREAGKITEAQAMELLECMWVGMAEFIDMYISPTGGAFNEGYAHWEAVTVGGQTPDGRDASNDLTYLILKSKREFPLHYPDLAARIHSRAPERYLWDVAETIKYGSGFPKLINDEEIVPLYVSKGATFEEALDYAVSGCTEARMPNRDTYTSGGAYINFAAAVEMVLRNGRMKKYGDQKLGVETGDPRSFTTWDQFWNAYVEQHLLFLKTAFTQQYIINKLRAEHFAQPMGSAMHDLCMKHCIDLHQEQIPEGINLGYFEYMGLGTVVDSLAAVKKLVFEEKKLSMDKLIAAIDADFEGYEDVRALLRSAPCYGNNDEYADAIGRDIDRISVEYGNKYSMSDLGIHNDVRYVPFTSHVPFGKVVSATPNGRTDGFPLSDGSSASHGADVNGPTAVLLSNCTTKNMGLRDRAARMLNIKFTPKCVEGEQGTEKLVSFIRTFCDLKLWHVQFNVVNKGTLVAAQKDPQKYRNLIVRIAGYSAYFVDLSPDLQNDLIARTEHDVM
notes: His-tagged, E. coli BL21
Km [5]: 6.3 ± 0.5 mM
kcat [5]: 12 ± 0.2 s⁻¹
